Here are results for three compounds from ChEMBL document CHEMBL1201862, “PubChem BioAssay data set” (2004).

In general, EC50 refers to the concentration at which the effect is half-maximal. As usually defined, the IC50 is the concentration that inhibits the measured activity by half. One may read the AC50 as the concentration giving half of the maximal activity seen.

Active and inactive are the calls of the source.

One assay has as its target Wee1-like protein kinase (Homo sapiens, UniProt P30291). Nature of the assay: Dose Response Cell-based Assay for Inhibitors of Wee1 Degradation. [Related pubchem assays: 1410, 1321 ]. In kind it is functional.
Another assay has as its target T1, Cysteine protease ATG4B (Homo sapiens, UniProt Q9Y4P1).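 Also: Fluorescence-based dose-response confirmation assay measuring inhibition of ATG4B activity.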
T1 sequence (Q9Y4P1 whole entry): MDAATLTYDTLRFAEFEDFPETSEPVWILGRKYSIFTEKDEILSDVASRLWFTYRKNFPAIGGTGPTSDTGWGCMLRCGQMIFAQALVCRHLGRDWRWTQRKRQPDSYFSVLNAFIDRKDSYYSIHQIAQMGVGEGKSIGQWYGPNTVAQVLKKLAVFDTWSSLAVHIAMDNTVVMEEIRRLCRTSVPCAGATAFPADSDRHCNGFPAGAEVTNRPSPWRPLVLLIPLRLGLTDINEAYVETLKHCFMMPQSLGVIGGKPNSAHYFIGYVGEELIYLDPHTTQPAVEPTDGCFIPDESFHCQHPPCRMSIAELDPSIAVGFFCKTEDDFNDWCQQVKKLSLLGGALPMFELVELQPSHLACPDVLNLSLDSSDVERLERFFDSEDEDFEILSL
Type of assay: functional.

A short description of assay [1]: luciferase reporter signal suppression in cells – H4 neuroglioma cells, luminescence, dose response (AID 1990). Type of assay: functional, cell-based.
Assay [2] can be described thus: alpha-synuclein stem-loop luciferase translation blockers – H4 neuroglioma cells, luminescence, confirmation (AID 1988). Type of assay: functional, cell-based.
The target of assay [3] is G2/mitotic-specific cyclin-B1 (Homo sapiens, UniProt P14635). The assay is described as follows: Counterscreen assay for inhibitors of Wee1 degradation: dose response cell-based assay to identify inhibitors of cyclin B degradation. [Related pubchem assays: 1410, 1321 ]. In kind it is functional. On the technique in general: Counterscreens check selectivity or assay interference.

Assay [4] in a line: Luminescence Cell-Based Dose Response HTS to Identify Inhibitors of 5'UTR Stem-Loop Driven Prion Protein mRNA Translation in H4 Neuroglioblastoma Cells. [Related pubchem assays: 1827 (Project Summary), 1813 (Primary HTS)]. In kind it is functional.
The next assay addresses Phospholipase A2 (Homo sapiens, UniProt P04054). In kind it is functional.
In assay [5] the target is Neuropeptides B/W receptor type 1 (Homo sapiens, UniProt P48145). The assay is described as follows: Fluorescence-based dose response cell-based high throughput screening assay to identify antagonists of the G-protein coupled receptor 7 (GPR7). [Related pubchem assays: 1952 (Screening assay (GPR7 antagonists).), 1880 (Summary AID.)]. In kind it is functional.
Assay [6] is described as follows: HPDE-C7 pancreatic duct cell viability loss – fluorescence, HTS (AID 430). The following applies: Homo sapiens. In kind it is functional, cell-based.
Assay [7] has as its target Melanin-concentrating hormone receptor 1 (Homo sapiens, UniProt Q99705). The assay is described as follows: Fluorescence-based counterscreen for antagonists of the G-protein coupled receptor 7 (GPR7): cell-based high throughput dose response assay to identify antagonists of the melanin-concentrating hormone receptor 1 (MCHR1). In kind it is functional.
The nature of assay [8]: viability loss of HPDE-C7K cells – cell-based, fluorescence, HTS, primary screen (AID 431). Type of assay: functional. The following applies: Homo sapiens.
Another assay has as its target Procathepsin L (Homo sapiens, UniProt P07711).
For another assay, the target named is Cytochrome P450 3A4 (Homo sapiens, UniProt P08684). The following applies: Potency.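 Also: confirmatory qHTS run detecting inhibitors and substrates of CYP3A4.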
The target in the next assay is Aspartyl aminopeptidase (Plasmodium falciparum 3D7, UniProt Q8I2J3).
Aspartyl aminopeptidase, sequence (Q8I2J3 whole entry): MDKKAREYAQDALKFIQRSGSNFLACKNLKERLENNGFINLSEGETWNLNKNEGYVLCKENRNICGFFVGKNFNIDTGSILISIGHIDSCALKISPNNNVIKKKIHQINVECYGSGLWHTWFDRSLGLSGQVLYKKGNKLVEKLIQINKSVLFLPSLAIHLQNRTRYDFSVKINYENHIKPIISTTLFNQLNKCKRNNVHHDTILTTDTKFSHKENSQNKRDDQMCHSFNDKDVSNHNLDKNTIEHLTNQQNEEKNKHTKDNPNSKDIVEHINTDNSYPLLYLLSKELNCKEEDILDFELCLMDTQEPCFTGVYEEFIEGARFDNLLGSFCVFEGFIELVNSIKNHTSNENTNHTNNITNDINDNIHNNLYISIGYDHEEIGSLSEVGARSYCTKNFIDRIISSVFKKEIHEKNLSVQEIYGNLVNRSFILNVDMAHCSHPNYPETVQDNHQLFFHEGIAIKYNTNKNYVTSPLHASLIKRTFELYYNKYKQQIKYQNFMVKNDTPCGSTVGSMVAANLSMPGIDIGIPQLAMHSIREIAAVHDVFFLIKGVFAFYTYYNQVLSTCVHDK

Neuropeptides B/W receptor type 1, sequence (P48145 whole entry): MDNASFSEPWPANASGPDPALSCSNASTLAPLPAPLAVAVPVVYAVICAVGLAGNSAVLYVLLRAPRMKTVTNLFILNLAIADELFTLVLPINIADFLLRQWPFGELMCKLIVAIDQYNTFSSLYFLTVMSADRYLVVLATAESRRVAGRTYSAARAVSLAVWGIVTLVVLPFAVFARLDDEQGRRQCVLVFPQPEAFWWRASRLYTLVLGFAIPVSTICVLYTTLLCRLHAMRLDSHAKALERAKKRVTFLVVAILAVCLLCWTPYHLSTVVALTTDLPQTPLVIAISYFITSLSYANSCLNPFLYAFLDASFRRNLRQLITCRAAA
Wee1-like protein kinase, sequence (P30291 whole entry): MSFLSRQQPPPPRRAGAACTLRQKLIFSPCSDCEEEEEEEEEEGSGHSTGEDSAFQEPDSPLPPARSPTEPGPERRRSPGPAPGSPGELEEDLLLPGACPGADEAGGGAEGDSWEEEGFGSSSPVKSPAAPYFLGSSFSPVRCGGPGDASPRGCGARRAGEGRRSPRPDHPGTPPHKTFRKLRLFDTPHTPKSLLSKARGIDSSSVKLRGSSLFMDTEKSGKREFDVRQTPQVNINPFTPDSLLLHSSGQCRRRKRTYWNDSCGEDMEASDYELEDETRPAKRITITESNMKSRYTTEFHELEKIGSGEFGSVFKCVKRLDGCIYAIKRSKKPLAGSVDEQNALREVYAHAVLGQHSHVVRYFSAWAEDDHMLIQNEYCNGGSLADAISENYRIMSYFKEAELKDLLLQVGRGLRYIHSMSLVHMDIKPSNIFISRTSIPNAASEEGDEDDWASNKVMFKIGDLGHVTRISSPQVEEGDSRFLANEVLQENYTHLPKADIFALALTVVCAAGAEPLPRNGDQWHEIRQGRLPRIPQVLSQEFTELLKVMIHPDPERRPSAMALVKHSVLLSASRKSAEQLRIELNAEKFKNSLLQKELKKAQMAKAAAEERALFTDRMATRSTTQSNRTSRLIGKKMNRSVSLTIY
Cytochrome P450 3A4, sequence (P08684 whole entry): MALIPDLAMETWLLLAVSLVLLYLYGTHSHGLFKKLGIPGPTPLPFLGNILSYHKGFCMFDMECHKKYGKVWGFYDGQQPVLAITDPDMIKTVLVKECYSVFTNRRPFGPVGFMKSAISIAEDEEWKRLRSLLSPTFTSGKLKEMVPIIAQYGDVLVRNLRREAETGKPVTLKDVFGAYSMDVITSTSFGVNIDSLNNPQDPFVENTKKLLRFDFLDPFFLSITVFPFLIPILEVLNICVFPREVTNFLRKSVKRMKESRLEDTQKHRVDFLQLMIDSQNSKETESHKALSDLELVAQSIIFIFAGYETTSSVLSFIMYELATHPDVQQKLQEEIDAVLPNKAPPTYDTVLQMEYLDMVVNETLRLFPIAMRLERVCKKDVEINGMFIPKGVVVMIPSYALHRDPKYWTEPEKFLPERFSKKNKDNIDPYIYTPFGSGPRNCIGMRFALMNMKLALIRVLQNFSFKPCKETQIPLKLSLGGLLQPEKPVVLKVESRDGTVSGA
G2/mitotic-specific cyclin-B1, sequence (P14635 whole entry): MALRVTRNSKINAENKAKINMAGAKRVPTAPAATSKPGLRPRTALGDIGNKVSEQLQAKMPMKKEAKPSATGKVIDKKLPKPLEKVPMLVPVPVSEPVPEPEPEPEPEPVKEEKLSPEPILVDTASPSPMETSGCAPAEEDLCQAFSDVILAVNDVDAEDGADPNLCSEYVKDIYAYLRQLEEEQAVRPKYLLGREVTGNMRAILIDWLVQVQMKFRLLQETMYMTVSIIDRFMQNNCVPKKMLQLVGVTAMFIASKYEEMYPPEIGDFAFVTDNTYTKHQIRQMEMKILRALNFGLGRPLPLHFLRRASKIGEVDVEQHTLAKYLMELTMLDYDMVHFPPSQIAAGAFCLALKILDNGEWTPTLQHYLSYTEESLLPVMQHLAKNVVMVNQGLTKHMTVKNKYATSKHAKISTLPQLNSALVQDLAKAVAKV
Phospholipase A2, sequence (P04054 whole entry): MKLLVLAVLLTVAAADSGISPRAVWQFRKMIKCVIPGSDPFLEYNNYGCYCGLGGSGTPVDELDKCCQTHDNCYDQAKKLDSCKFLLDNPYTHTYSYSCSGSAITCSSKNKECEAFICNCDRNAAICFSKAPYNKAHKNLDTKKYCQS
Procathepsin L, sequence (P07711 whole entry): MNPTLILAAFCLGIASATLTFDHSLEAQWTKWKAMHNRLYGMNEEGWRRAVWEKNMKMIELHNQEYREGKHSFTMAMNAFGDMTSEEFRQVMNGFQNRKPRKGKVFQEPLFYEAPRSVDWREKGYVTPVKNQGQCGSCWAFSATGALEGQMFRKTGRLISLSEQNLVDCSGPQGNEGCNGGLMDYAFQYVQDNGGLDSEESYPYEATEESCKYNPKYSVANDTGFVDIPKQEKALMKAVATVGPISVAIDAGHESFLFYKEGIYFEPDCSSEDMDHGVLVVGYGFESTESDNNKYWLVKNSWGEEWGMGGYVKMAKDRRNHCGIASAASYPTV
Melanin-concentrating hormone receptor 1, sequence (Q99705 whole entry): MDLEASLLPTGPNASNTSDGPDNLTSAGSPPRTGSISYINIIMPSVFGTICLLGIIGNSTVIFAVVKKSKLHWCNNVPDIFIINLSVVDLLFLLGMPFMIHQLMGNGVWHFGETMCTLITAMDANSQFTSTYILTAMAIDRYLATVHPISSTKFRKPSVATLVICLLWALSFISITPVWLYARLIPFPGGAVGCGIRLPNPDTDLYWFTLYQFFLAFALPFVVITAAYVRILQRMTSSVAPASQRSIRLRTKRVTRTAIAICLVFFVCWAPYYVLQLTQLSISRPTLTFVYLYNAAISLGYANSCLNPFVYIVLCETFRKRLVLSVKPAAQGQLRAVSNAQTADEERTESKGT

Consider `CCCC1=Nc2cc(C(=O)NCc3ccco3)ccc2Sc2ccccc21`, for which the EC50 at Wee1-like protein kinase was > 49.7 µM (not active); in [1], 11.1 µM (inconclusive); in assay [2] it was 8.6 µM (active); in [3] it was > 49.7 µM (not active); in assay [4] it was 11.4 µM (active). For the same compound, the IC50 was 15.2 µM (active) on Cysteine protease ATG4B and 6.93 µM (active) at Phospholipase A2.

For the compound `CCc1ccccc1NC(=O)CN1C(=O)C2CCCN2c2ncc(Cl)cc21` (centres undefined), the IC50 in assay [5] and in assay [7] was > 43.8 µM (not active) each time. The EC50 in assay [6] and in assay [8] was > 20 µM (not active) in each case.

Consider `CC1(C)CC(=O)c2c(oc3cc(O)c(O)cc23)C1`, for which the IC50 was > 59.6 µM (not active) against Procathepsin L and 1.25 µM (active) at Aspartyl aminopeptidase. On Cytochrome P450 3A4, the AC50 was 31.6 µM (inconclusive).
